{
  "source": "patent US12403104B2",
  "about": "“Compounds and methods of promoting myelination” (Case Western Reserve University, priority 2016, dated 2025)",
  "key": {"[1]": {"test_system": "mouse epiblast stem cell-derived OPCs", "experiment": "In vitro phenotypic screening of OPCs (MBP+ oligodendrocytes at 72 h)", "assay_type": "cell-based", "experimental": "Then, 40,000 cells were seeded per well in differentiation medium and allowed to attach for 30 min before addition of drug. […] Sterols were added to cells as an ethanol solution (0.2% final ethanol concentration). […] Cells were incubated under standard conditions (37° C., 5% CO2) for 3 days and fixed with 4% paraformaldehyde (PFA) in phosphate buffered saline (PBS) for 20 min. Fixed plates were washed with PBS (200 μL per well) twice, permeabilized with 0.1% Triton X-100 and blocked with 10% donkey serum (v/v) in PBS for 40 min. […] Nuclei were visualized by DAPI staining (Sigma; 1 μg/ml)."}, "mouse primary OPCs": {"test_system": "mouse primary OPCs", "experiment": "MBP+ oligodendrocyte formation from mouse primary OPCs", "assay_type": "cell-based", "conditions": "72 h", "experimental": "To obtain mouse primary OPCs, whole brain was removed from post-natal day 2 pups anesthetized on ice. Brains were placed in cold DMEM/F12, and the cortices were isolated and the meninges were removed. The cortices were manually chopped and processed with the Tumor Dissociation Kit (Miltenyi) and incubated at 37° C. for 10 minutes. The cell suspension was filtered through a […] filter and centrifuged at 200×g for 4 minutes at room temperature. The cells were washed in DMEM/F12, re-centrifuged and plated in poly-Ornithine and Laminin-treated flasks containing DMEM/P12 supplemented with N2 Max, B27 (ThermoFisher), 20 ng/mL FGF, and 20 ng/mL PDGF. […] were passaged once prior to treatment. Media was changed every 48 hours.\nThen, 40,000 cells were seeded per well in differentiation medium and allowed to attach for 30 min before addition of drug. For dose-response testing of all molecules except sterols, a 1000× compound stock in dimethyl sulphoxide (DMSO) was added to assay plates with 0.1 μL solid pin multi-blot replicators (V & P Scientific; VP 409), resulting in a final primary screening concentration of 1×. Sterols were added to cells as an ethanol solution (0.2% final ethanol concentration). […] Cells were incubated under standard conditions (37° C., 5% CO2) for 3 days and fixed with 4% paraformaldehyde (PFA) in phosphate buffered saline (PBS) for 20 min. […]"}, "OPCs": {"test_system": "OPCs", "experiment": "GC/MS-based sterol profiling in OPCs", "assay_type": "cell-based, mouse", "conditions": "GC/MS, 24 h treatment (siRNA 96 h)"}, "EBP": {"molecular_target": "T1, EBP (Mus musculus, UniProt P70245)", "T1 construct": "active EBP was obtained from mouse microsomes; from tissue", "T1 sequence (P70245 1-230)": "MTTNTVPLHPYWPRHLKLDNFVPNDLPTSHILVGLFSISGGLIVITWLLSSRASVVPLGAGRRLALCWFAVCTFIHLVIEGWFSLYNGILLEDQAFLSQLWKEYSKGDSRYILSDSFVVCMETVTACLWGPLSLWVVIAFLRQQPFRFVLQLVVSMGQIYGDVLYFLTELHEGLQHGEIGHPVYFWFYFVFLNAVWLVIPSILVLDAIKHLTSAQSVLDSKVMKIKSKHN", "experiment": "EBP enzymatic assay (GC/MS)", "assay_type": "biochemical", "conditions": "10 μM, zymostenol 25 μM"}, "LPC-lesioned spinal cord [2]": {"test_system": "LPC-lesioned spinal cord", "experiment": "LPC focal demyelination of spinal cord, remyelination", "assay_type": "in vivo, mouse", "conditions": "ifenprodil 10 mg per kg, tamoxifen 2 mg per kg, daily intraperitoneal, 8 days"}, "[3]": {"test_system": "human glioma cells (GBM528)", "experiment": "GC/MS sterol profiling in human glioma cell line", "assay_type": "cell-based", "conditions": "24 h"}, "LPC-lesioned spinal cord [4]": {"test_system": "LPC-lesioned spinal cord", "conditions": "earlier work; cited from earlier work"}},
  "data": [
    {"smiles": "Cc1cc(C)c(CNC(=O)c2cc(-c3ccc(CN4CCOCC4)cc3)cc3c2cnn3C2CCCC2)c(=O)[nH]1", "note": "[EPZ005687]", "values": [
      {"measurement": "formation of MBP+ oligodendrocytes from OPCs", "setting": "[1]", "result": "enhanced oligodendrocyte formation"},
      {"measurement": "oligodendrocyte formation from mouse primary OPCs", "setting": "mouse primary OPCs", "result": "enhanced oligodendrocyte formation"},
      {"measurement": "sterol levels / sterol intermediate accumulation in OPCs", "setting": "OPCs", "result": "uniquely caused accumulation of zymosterol and zymostenol in OPCs"},
      {"measurement": "inhibition of EBP enzymatic activity", "setting": "EBP", "result": "directly inhibiting EBP enzymatic activity"}
    ]},
    {"smiles": "CC(C(O)c1ccc(O)cc1)N1CCC(Cc2ccccc2)CC1", "note": "(stereo not drawn) [ifenprodil, Ifenprodil]", "values": [
      {"measurement": "remyelination of LPC lesion", "setting": "LPC-lesioned spinal cord [2]", "result": "remyelination was widespread throughout the lesion"},
      {"measurement": "accumulation of sterol intermediates in human glioma cell line", "setting": "[3]", "result": "caused accumulation of the expected sterol intermediates"}
    ]},
    {"smiles": "Clc1ccc(COC(Cn2ccnc2)c2ccc(Cl)cc2Cl)c(Cl)c1", "note": "(stereo not drawn) [miconazole, Miconazole]", "values": [
      {"measurement": "accumulation of sterol intermediates in human glioma cell line", "setting": "[3]", "result": "caused accumulation of the expected sterol intermediates"},
      {"measurement": "remyelination in mouse models of demyelination (previously established)", "setting": "LPC-lesioned spinal cord [4]", "result": "enhances remyelination in mouse models of demyelination"}
    ]},
    {"smiles": "CC/C(=C(\\c1ccccc1)c1ccc(OCCN(C)C)cc1)c1ccccc1", "note": "[tamoxifen, Tamoxifen]", "values": [
      {"measurement": "sterol levels / sterol intermediate accumulation in OPCs", "setting": "OPCs", "result": "induced accumulation of zymostenol and zymosterol and decreased basal sterol levels"},
      {"measurement": "inhibition of EBP enzymatic activity", "setting": "EBP", "result": "clear inhibition"},
      {"measurement": "remyelination of LPC lesion", "setting": "LPC-lesioned spinal cord [2]", "result": "remyelination was widespread throughout the lesion"},
      {"measurement": "accumulation of sterol intermediates in human glioma cell line", "setting": "[3]", "result": "caused accumulation of the expected sterol intermediates"}
    ]}
  ]
}
